“And” between values parts separate entries of the source, which are not always exact repeats. Equal entries are not always repeated.

The subject of one test is PfCRT variant E207I. The test is described as follows: CQ uptake assay, oocytes expressing E207I. The format is cell-based, Plasmodium falciparum. As to the method: (§1) Site-directed mutagenesis of PfCRT^Dd2 was performed as described using the megaprimer method with overlap extension[21],[54]. The primer pairs used are listed in Supplementary Table 6. Please note that a codon-optimized and oocyte-adapted version of PfCRT^Dd2 was used[22] (Supplementary Fig. 16). The resulting DNA fragment was cloned into the SP64T expression vector and verified by sequencing.
(§2) Oocytes were obtained as described previously. Briefly, adult (>2 years old) female X. laevis frogs (NASCO) were anesthetized in a cooled solution of ethyl 3-amino benzoate methanesulfonate (0.1%, w/v), followed by a surgical removal of parts of the ovary. The ovary lobes were carefully dissected and small pieces of oocytes were incubated in Ca^2+-free ND96 buffer (96 mM NaCl, 2 mM KCl, 1 mM MgCl2 buffered with 5 mM HEPES/NaOH, pH 7.5) supplemented with collagenase D (0.1%, w/v; Roche), BSA (0.5%, w/v), and 9 mm Na2HPO4 at 18 °C for 14-16 h while gentle shaking. After incubation, the oocytes were carefully washed several times with ND96 buffer (96 mM NaCl, 2 mM KCl, 1.8 mM CaCl2, 1 mM MgCl2 buffered with 5 mM HEPES/NaOH, pH 7.5) supplemented with 100 mg l^−1 gentamycin). Defolliculated and healthy-looking stage V-VI oocytes were manually selected for RNA microinjection. The RNA was generated as following: The codon-optimized sequences of PfCRT variants were cloned into the pSP64T expression vector. After vector linearization using the restriction endonucleases BamHI or SalI (New England Biolabs), transcription was performed using the in vitro SP6 mMessage mMachine Kit (Ambion)[34]. The obtained RNA was kept at −80 °C and diluted with nuclease-free water to a concentration of 0.6 μg μl^−1. Precision-bore glass capillary tubes (3.5-inch glass capillaries; Drummond Scientific Co.) were pulled on a vertical puller (P-87 Flaming/Brown micropipette puller, Sutter Instrument Co.), graduated, and placed on a microinjector (Nanoject II Auto-Nanoliter Injector, Drummond Scientific Co.). 50 nl of nuclease-free water alone (control oocytes) or 50 nl of 0.6 μg μl^−1 RNA were injected under stereomicroscopic control. Injected oocytes were incubated for 46–72 h at 18 °C with twice-daily buffer changes before usage in experiments.
Drug uptake assays were performed as described previously[21],[22],[24],[34]. […] The direction of radio-labeled drug transport is here from the mostly acidic extracellular solution (pH 4.5 or 6.0, as indicated) into the oocyte cytosol (pH ∼ 7.2), which corresponds to the efflux of drug from the acidic digestive vacuole (pH 5.2) into the parasite cytoplasm (pH 7.2). The topology of PfCRT in the oolemma is such that both the N- and C-terminus face the extracellular milieu[3],[22]. In the parasite, the N- and C-terminus face the lumen of the digestive vacuole. […] For determination of the amount of drug uptake for each oocyte, the reaction medium was removed and the oocytes were washed three times with 2 ml of ice-cold ND96 buffer. Each oocyte was individually transferred to a scintillation vial containing 5% sodium dodecyl sulfate (200 μl) for lysis. […] Oocytes that were injected with water instead of RNA were analyzed in parallel, representing the uptake of a drug by diffusion and/or endogenous permeation pathways. The resulting value represents the “background“ level of drug accumulation in oocytes (in-depth discussion in[22]). The specific PfCRT-mediated uptake was determined by subtracting the corresponding background value measured in water-injected oocytes from that of PfCRT-expressing oocytes. In all cases, at least three separate experiments were performed on oocytes from different frogs (biological replicate), and for each condition in an experiment, measurements were made from 10 oocytes per treatment. For pH 5.5, 6.0, and 6.5, ND96 was buffered with 5 mM MES/Tris base.

For another test, the system named is PfCRT variant K80A. The test is described as follows: CQ uptake assay, oocytes expressing K80A. The class given is cell-based, Plasmodium falciparum. As to the method: as §1, §2
Drug uptake assays were performed as described previously[21],[22],[24],[34]. […] The direction of radio-labeled drug transport is here from the mostly acidic extracellular solution (pH 4.5 or 6.0, as indicated) into the oocyte cytosol (pH ∼ 7.2), which corresponds to the efflux of drug from the acidic digestive vacuole (pH 5.2) into the parasite cytoplasm (pH 7.2). The topology of PfCRT in the oolemma is such that both the N- and C-terminus face the extracellular milieu[3],[22]. In the parasite, the N- and C-terminus face the lumen of the digestive vacuole. CQ uptake kinetics were performed by incubating oocytes in ND96 buffer adjusted to a pH of 4.5, 5.0, 5.5, or 6.0 and supplemented with 50 nM [^3H]CQ and one of 7 different CQ concentrations (10 µM, 50 µM, 100 µM, 200 µM, 300 µM, 400 µM, 500 µM CQ). The reaction was stopped at the 60 min time point, which is in the linear uptake range[22],[34] (Supplementary Fig. 17). For determination of the amount of drug uptake for each oocyte, the reaction medium was removed and the oocytes were washed three times with 2 ml of ice-cold ND96 buffer. Each oocyte was individually transferred to a scintillation vial containing 5% sodium dodecyl sulfate (200 μl) for lysis. The radioactivity of each sample was measured using a liquid scintillation analyzer Tri-Carb 4910 TR (PerkinElmer). Oocytes that were injected with water instead of RNA were analyzed in parallel, representing the uptake of a drug by diffusion and/or endogenous permeation pathways. The resulting value represents the “background“ level of drug accumulation in oocytes (in-depth discussion in[22]). […]

The mark [1] stands for this setting: E207I, 50 µM CQ, 1 h, mean ± SEM.
Where [2] appears, read: K80A, 50 µM CQ, 1 h, mean ± SEM.

As to `CCN(CC)CCCC(C)Nc1ccnc2cc(Cl)ccc12` (stereo not drawn) [CQ, chloroquine], the “Activity at pH 4.5” value in the test with PfCRT variant E207I (setting [1]) is 2.05 ± 0.22 pmol h-1 oocyte-1; with PfCRT variant K80A (setting [2]) it was 1.71 ± 0.08 pmol h-1 oocyte-1. Moreover, the “Activity at pH 6.0” value is listed as 2.15 ± 0.11 pmol h-1 oocyte-1 with PfCRT variant E207I (setting [1]) and 2.26 ± 0.12 pmol h-1 oocyte-1 in the test on PfCRT variant K80A (setting [2]). Moreover, the R-value with PfCRT variant E207I (E207I, CQ transport at pH 4.5 / pH 6.0) came to 0.95 ± 0.01; in the test on PfCRT variant K80A (K80A, CQ transport at pH 4.5 / pH 6.0), 0.76 ± 0.04. Moreover, the “E207I transport activity pH 4.5” value in the test with PfCRT variant E207I (pH 4.5, individual replicates, Fig 6b) is 2.06 pmol oocyte-1 h-1 and 2.31 pmol oocyte-1 h-1. Also, the “E207I transport activity pH 6.0” value in the test with PfCRT variant E207I (pH 6.0, individual replicates, Fig 6b) was 2.16 pmol oocyte-1 h-1 and 1.90 pmol oocyte-1 h-1 and 2.38 pmol oocyte-1 h-1. Moreover, in the test with PfCRT variant E207I (ratio of activity pH 4.5 / pH 6.0), the “E207I R-value” was 0.95 and 0.93 and 0.97. In addition, the “K80A transport activity pH 4.5” value in the test on PfCRT variant K80A (pH 4.5, individual replicates (Fig 6a)) is 1.97 pmol oocyte-1 h-1 and 1.67 pmol oocyte-1 h-1 and 1.57 pmol oocyte-1 h-1 and 1.62 pmol oocyte-1 h-1. The “K80A transport activity pH 6.0” value in the test on PfCRT variant K80A (pH 6.0, individual replicates (Fig 6a)) is 2.59 pmol oocyte-1 h-1 and 1.89 pmol oocyte-1 h-1 and 2.31 pmol oocyte-1 h-1 and 2.26 pmol oocyte-1 h-1. In addition, the “K80A R-value” with PfCRT variant K80A (transport activity pH 4.5 relative to pH 6.0 (Fig 6a)) was 0.76 and 0.88 and 0.68 and 0.72.

The values above are taken from article PMC10349806 (Nature Communications, 2023).
